{"source": "patent US20070281960A1", "about": "“Anti-Histaminic Composition” (priority 2004, published 2007)", "key": {"[1]": {"test": "Compatibility of desloratadine with common excipients", "format": "physicochemical", "conditions": "lactose, magnesium stearate, microcrystalline stearate; degrades and changes to a pink colour", "source_text": "Therefore, extreme caution needs to be taken when formulating desloratadine with various excipients. […] This decomposition is further accelerated under high temperature and humid conditions."}, "[2]": {"tested_on": "human mast cells", "conditions": "in vitro; cited from earlier work"}}}
{"smiles": "Clc1ccc2c(c1)CCc1cccnc1C2=C1CCNCC1", "note": "[Desloratadine, 8-chloro-6,11-dihydro-11-(4-piperidylidene)-5-H-benzo [5,6] cyclohepta [1,2-b] pyridine]", "values": [{"measurement": "compatibility with common excipients", "setting": "[1]", "value": "incompatible"}, {"measurement": "histamine release from human mast cells", "setting": "[2]", "value": "inhibits histamine release"}]}
